Experimental data: patent US12668599B2, “Heterobifunctional compounds and methods of treating disease” (Halda Therapeutics OpCo, Inc., priority 2023, dated 2026)

What was measured:
VCaP cells = assay: Cellular growth inhibition assay for VCaP cells (CellTiter-Glo 2.0, 72 hours); assay type: cell-based, human; details: for GI50: CellTiter-Glo 2.0
Protocol: Exemplary compounds were tested for ability to inhibit the proliferation of VCaP cells. VCap cells are a commercially available human prostate cancer cell line.
VCaP cells were purchased from American Type Cell Culture (ATCC Cat #CRL2876) and then seeded on poly-D-lysine coated, black clear-bottom 384-well plates at 5000/well in 25 μL Dulbecco's Modified Eagle Medium (DMEM) supplemented with 10% w/w Fetal bovine serum (FBS) and 1% w/w Pen-Strep. Pen-Strep is a commercially available mixture of penicillin G and streptomycin, which is used in mammalian cell culture media to prevent bacterial contamination. Dulbecco's Modified Eagle Medium (DMEM) supplemented with 10% w/w fetal bovine serum (FBS) and 1% w/w Pen-Strep is herein referred to as Treatment Medium. Following seeding of cells in the plates, the plates were spun at 300×g for 30 seconds, then equilibrated to room temperature for 30 minutes, and then deposited in a humidified tissue culture incubator maintained at 37° C. with 5% CO2.
(§1) At 24 hours after seeding of the cells, dilutions of test compound were prepared in DMSO and dissolved in Treatment Medium, to achieve a final DMSO concentration of 0.5% w/w, thereby providing the Test Compound Solution. A 25 μL aliquot of the Test Compound Solution was added to cells in the well plates. An equal volume of a solution containing DMSO and Treatment Medium was used as a negative control. Following treatment of cells with Test Compound Solution or said equal volume of a solution containing DMSO and Treatment Medium, the plates were spun at 300×g for 30 seconds, and then left in an incubator for 72 hours.
(§2) At the end of the treatment duration, cell viability was quantified with CellTiter-Glo 2.0 reagent (Promega Cat #G9243). For this purpose, plates were equilibrated to room temperature for 30 minutes, and then 25 μL of CellTiter-Glo 2.0 reagent was added to cells in the plate wells. Plates were then agitated on a shaker for two minutes at 500 rpm and subsequently incubated at room temperature for 10 minutes. Following incubation, the plates were spun at 3000×g for 30 seconds, then sealed with an optical adhesive cover, and luminescence readings were measured with an En Vision Plate Reader.
(§3) Data was normalized using zero luminescence for baseline. A four-parameter non-linear regression curve fit was applied to dose-response data in GraphPad Prism data analysis software to determine the half-maximal growth inhibitory concentration (GI50) for each test compound.

[1] = test system: T-Rex 293 cell line SC3 cells having increased expression of androgen receptor protein due to exposure to doxycycline; assay: Cellular growth inhibition, T-Rex 293 SC3 cells with doxycycline-induced androgen receptor (CellTiter-Glo 2.0, 72 hours); assay type: cell-based; details: for GI50: T-Rex 293 SC3 cells with 10 ng/ml doxycycline (increased androgen receptor expression), 72 hours, CellTiter-Glo 2.0
Protocol: (§4) Ability of the test compounds to inhibit proliferation of the foregoing cell types was evaluated according to the procedures set forth below.
(§5) The doxycycline-inducible androgen receptor protein expressing cell line was established using the following protocol: T-Rex 293 cells were purchased from Invitrogen (Cat #R71007) and transfected using Lipofectamine 2000 with the wild-type androgen receptor protein sequence cloned into the pcDNA4/TO vector. Transfected cells were selected using 400 μg/mL Zeocin (Invitrogen Cat #R25001). Following selection, single clones were raised and maintained in Dulbecco's Modified Eagle Medium (DMEM) supplemented with 10% w/w Tetracycline-free fetal bovine serum (FBS) and 250 μg/mL Zeocin. Clones were analyzed for expression of androgen receptor protein in the presence and absence of 10 ng/ml doxycycline (Sigma Cat #D9891), and a single doxycycline-inducible clone (hereinafter “SC3”) was selected for use in downstream assays.
(§6) The SC3 cells were seeded on poly-D-lysine coated, black clear-bottom 384-well plates at 2500/well, in 25 μL Phenol Red Free Dulbecco's Modified Eagle Medium (DMEM) supplemented with 10% w/w charcoal-dextran treated fetal bovine serum (FBS) and 1% w/w pen-strep, with or without 10 ng/ml doxycycline. Pen-Strep is a commercially available mixture of penicillin G and streptomycin, which is used in mammalian cell culture media to prevent bacterial contamination. Phenol Red Free Dulbecco's Modified Eagle Medium (DMEM) supplemented with 10% w/w charcoal-dextran treated fetal bovine serum (FBS) and 1% w/w pen-strep, with or without 10 ng/mL doxycycline is herein referred to as Treatment Medium. Following seeding of cells in the plates, the plates were spun at 300×g for 30 seconds, then equilibrated to room temperature for 30 minutes, and then deposited in a humidified tissue culture incubator maintained at 37° C. with 5% CO2.
as §1, §2, §3

[2] = test system: T-Rex 293 cell line SC3 cells lacking increased expression of androgen receptor protein; assay: Cellular growth inhibition, T-Rex 293 SC3 cells without doxycycline (CellTiter-Glo 2.0, 72 hours); assay type: cell-based; details: T-Rex 293 SC3 cells not exposed to doxycycline (no increased androgen receptor expression)
Protocol: as §4, §5, §6, §1, §2, §3

GI50 (VCaP cells; Homo sapiens, VCaP, 72 h)	GI50 (VCaP cells; 72 hours)	Ratio of GI50's (VCaP cells; GI50 of the top compound in the pair divided by GI50 of the lower compound)	Structure (SMILES)	GI50 [1]	GI50 ([2]; 72 h)	GI50 [2]	Ratio of GI50's ([1]; GI50 of the top compound in the pair divided by GI50 of the lower compound, T-Rex 293 SC3 cells with doxycycline-induced androgen receptor)
500 to 1500 nM	–	–	COc1cc(O[C@H]2CC[C@H](NC(=O)c3ccc(N4CCC5(CCN(c6ccc(C7=N[C@@H](C)c8nnc(C)n8-c8sc(C)c(C)c87)cc6C(C)C)CC5)C4)nn3)CC2)ccc1C#N [Compound I-105, N-[4-(4-cyano-3-methoxy-phenoxy)cyclohexyl]-6-[8-[2-isopropyl-4-[(9S)-4,5,9,13-tetramethyl-3-thia1,8,11,12-tetrazatricyclo[8.3.0.0^2,6]trideca-2 (6),4,7,10,12-pentaen-7-yl]phenyl]-2,8-diazaspiro[4.5]decan-2-yl]pyridazine-3-carboxamide]	< 500 nM	> 3000 nM	–	–
–	> 3000 nM	–	COc1cc(O[C@H]2CC[C@H](NC(=O)c3ccc(N4CCC5(CCN(c6ccc(C7=NC(Cc8ncco8)c8nnc(C)n8-c8sc(C)c(C)c87)cc6C(F)(F)F)CC5)C4)nn3)CC2)ccc1C#N (some centres unmarked) [Compound I-126]	< 500 nM	–	> 3000 nM	–
< 500 nM	–	–	COc1cc(O[C@H]2CC[C@H](NC(=O)c3ccc(N4CCC5(CCC(c6ccc(C7=N[C@@H](C)c8nnc(C)n8-c8sc(C)c(C)c87)cc6)CC5)C4)nc3)CC2)ccc1C#N (some centres unmarked) [Compound I-36]	< 500 nM	< 500 nM	–	–
> 3000 nM	–	–	COc1cc(O[C@H]2CC[C@H](NC(=O)c3ccc(N4CCC5(CCN(c6ccc(C7=N[C@@H](C)c8nnc(C)n8-c8sc(C)c(C)c87)cc6)C5)CC4)nn3)CC2)ccc1C#N [Compound I-23]	> 3000 nM	< 500 nM	–	–
< 500 nM	–	–	COc1cc(O[C@H]2CC[C@H](NC(=O)c3cnc(N4CCC5(CCN(c6ccc(C7=N[C@@H](C)c8nnc(C)n8-c8sc(C)c(C)c87)cc6)CC5)C4)cn3)CC2)ccc1C#N [Compound I-39, N-((1r,4r)-4-(4-cyano-3-methoxyphenoxy)cyclohexyl)-5-(8-(4-((S)-2,3,6,9-tetramethyl-6H-thieno[3,2-f][1,2,4]triazolo[4,3-a][1,4]diazepin-4-yl)phenyl)-2,8-diazaspiro[4.5]decan-2-yl) pyrazine-2-carboxamide]	< 500 nM	< 500 nM	–	–
–	> 3000 nM	–	COc1cc(O[C@H]2CC[C@H](NC(=O)c3ccc(N4CCC5(CCN(c6ccc(C7=NC(Cc8ncco8)c8nnc(C)n8-c8sc(C)c(C)c87)c(C(F)(F)F)c6)CC5)C4)nn3)CC2)ccc1C#N (some centres unmarked) [Compound I-136]	< 500 nM	> 3000 nM	–	–
–	< 500 nM	–	COc1cc(O[C@H]2CC[C@H](NC(=O)c3ccc(N4CCC5(CCC(c6ccc(C7=N[C@@H](C)c8nnc(C)n8-c8sc(C)c(C)c87)cc6OC)CC5)C4)nn3)CC2)ccc1C#N (some centres unmarked) [Compound I-67]	< 500 nM	–	< 500 nM	–
–	< 500 nM	–	COc1cc(O[C@H]2CC[C@H](NC(=O)c3ccc(N4CCC5(CCC(c6ccc(C7=N[C@@H](C)c8nnc(C)n8-c8sc(C)c(C)c87)cn6)CC5)C4)nn3)CC2)ccc1C#N (some centres unmarked) [Compound I-87]	< 500 nM	–	< 500 nM	–
< 500 nM	–	–	COc1cc(O[C@H]2CC[C@H](NC(=O)c3ccc(N4CC(F)(F)C5(CCN(c6ccc(C7=N[C@@H](C)c8nnc(C)n8-c8sc(C)c(C)c87)cc6)C5)C4)nn3)CC2)ccc1C#N (some centres unmarked) [Compound I-117]	< 500 nM	< 500 nM	–	–
< 500 nM	–	–	COc1cc(O[C@H]2CC[C@H](NC(=O)c3ccc(N4CCC5(CCC(c6ccc(C7=N[C@@H](C)c8nnc(C)n8-c8sc(C)c(C)c87)cc6)CC5)C4)nn3)CC2)ccc1C#N (stereo partly drawn) [Compound I-19, N-[(1r,4r)-4-(4-cyano-3-methoxy-phenoxy)cyclohexyl]-6-[8-[4-[(9S)-4,5,9,13-tetramethyl-3-thia-1,8,11,12-tetrazatricyclo[8.3.0.0^2,6]trideca-2 (6),4,7,10,12-pentaen-7-yl]phenyl]-2-azaspiro[4.5]decan-2-yl]pyridazine-3-carboxamide]	< 500 nM	< 500 nM	–	–
< 500 nM	–	–	COc1cc(O[C@H]2CC[C@H](NC(=O)c3ccc(N4CCC5(CCC(c6ccc(C7=N[C@@H](C)c8nnc(C)n8-c8sc(C)c(C)c87)cc6)CC5)C4)cn3)CC2)ccc1C#N (some centres unmarked) [Compound I-53]	< 500 nM	< 500 nM	–	–
–	< 500 nM	–	COc1cc(O[C@H]2CC[C@H](NC(=O)c3ccc(N4CCC5(CCN(c6ccc(C7=N[C@@H](C)c8nnc(C)n8-c8sc(C)c(C)c87)c(F)c6)C5)C4)nn3)CC2)ccc1C#N (some centres unmarked) [Compound I-93]	< 500 nM	–	< 500 nM	–
< 500 nM	–	–	COc1cc(O[C@H]2CC[C@H](NC(=O)c3ccc(N4C[C@H]5CN(c6ccc(C7=N[C@@H](C)c8nnc(C)n8-c8sc(C)c(C)c87)c(F)c6)C[C@H]5C4)nn3)CC2)ccc1C#N [Compound I-77]	< 500 nM	< 500 nM	–	–
< 500 nM	–	1	COc1cc(O[C@H]2CC[C@H](NC(=O)c3ccc(N4CCC5(CC4)CC(Cc4ccc(C6=N[C@@H](Cc7ncco7)c7nnc(C)n7-c7sc(C)c(C)c76)cc4)C5)nn3)CC2)ccc1C#N [Compound I-25, N-[4-(4-cyano-3-methoxy-phenoxy)cyclohexyl]-6-[2-[[4-[(9S)-4,5,13-trimethyl-9-(oxazol-2-ylmethyl)-3-thia-1,8,11,12-tetrazatricyclo[8.3.0.0^2,6]trideca-2 (6),4,7,10,12-pentaen-7-yl]phenyl]methyl]-7-azaspiro[3.5]nonan-7-yl]pyridazine-3-carboxamide]	< 500 nM	< 500 nM	–	1
< 500 nM	–	–	COc1cc(O[C@H]2CC[C@H](NC(=O)c3ccc(N4CCC5(CC4)CC(Cc4ccc(C6=N[C@@H](Cc7ncco7)c7nnc(C)n7-c7sc(C)c(C)c76)c(F)c4)C5)nn3)CC2)ccc1C#N [Compound I-125, N-[4-(4-cyano-3-methoxy-phenoxy)cyclohexyl]-6-[2-[[3-fluoro-4-[(9S)-4,5,13-trimethyl-9-(oxazol-2-ylmethyl)-3-thia-1,8,11,12-tetrazatricyclo[8.3.0.0^2,6]trideca-2 (6),4,7,10,12-pentaen-7-yl]phenyl]methyl]-7-azaspiro[3.5]nonan-7-yl]pyridazine-3-carboxamide]	< 500 nM	< 500 nM	–	–
< 500 nM	–	–	COc1cc(O[C@H]2CC[C@H](NC(=O)c3ccc(N4CCC5(CCN(c6ccc(C7=N[C@@H](C)c8nnc(C)n8-c8sc(C)c(C)c87)cc6F)C5)C4)nn3)CC2)ccc1C#N (stereo partly drawn) [Compound I-79, N-[4-(4-cyano-3-methoxy-phenoxy)cyclohexyl]-6-[7-[2-fluoro-4-[(9S)-4,5,9,13-tetramethyl-3-thia-1,8,11,12-tetrazatricyclo[8.3.0.0^2,6]trideca-2 (6),4,7,10,12-pentaen-7-yl]phenyl]-2,7-diazaspiro[4.4]nonan-2-yl]pyridazine-3-carboxamide]	< 500 nM	< 500 nM	–	–
